Laboratory results from patent US9428732B2, “Compositions and methods for differentiating pluripotent stem cells into primitive blood cells and uses thereof” (Primorigen Biosciences, Inc., priority 2011, dated 2016).

Test system: ES and iPS cells
Assay: Small molecule screen, CFU-GEMM assays of myeloid progenitors
Type: cell-based, human
Conditions: relative to DMSO control; DEAB 10 μM, rapamycin 0.1 μM; FIG. 3D
Experimental: The differentiation cultures were trypsinized at the indicated time points and single-cell suspensions were generated following trypsinization. For the Colony Forming Unit (CFU) assays using methyl cellulose cultures, 25% of the cells were plated in 2 ml of MethoCult H4435 (STEMCELL Technologies, Vancouver, BC) in six-well plates. Alternatively, sorted CD45+, CD43+, CD34+, 7AAD-cells were sorted and plated at 500 cells per 2 ml Methocult media. Cells were incubated for 14 days in a humidified incubator at 37° C. with 5% CO2 and evaluated for colonies by bright-field microscopy (Zeiss (Oberkochen, Germany, www.zeiss.com) Axiovert 200 with a Zeiss Axiocam), Cells were resuspended in PBS supplemented with 2% FBS. For the lymphoid myeloid differentiation assays, either CD45+, CD43+, CD34+, 7AAD-hematopoietic progenitors, or CD45+, CD43+, CD34+, CD38−, CD90+, CD45RA− phenotypic HSCs were plated at 20-40 cells per well onto OP9 and OP9delta feeder lines for B-cell and T-cell differentiation, respectively, as previously described (Nozad Charoudeh H, Tang Y, Cheng M, Cilio C M, Jacobsen S E, Sitnicka E., Identification of an NK/T cell-restricted progenitor in adult bone marrow contributing to bone marrow- and thymic-dependent NK cell, Blood, 2010 Jul. 15; 116(2):183-92. NK cell differentiation as well as myeloid cell differentiation was also detected in this differentiation system. […]

For `CCN(CC)c1ccc(C=O)cc1` [DEAB, 4-diethylaminobenzaldehyde], the “output of myeloid progenitors (CFU/BFU)” value was “increased”.
